“Also recorded” adds a separate entry of the source. Where no end group is shown, it is not given here.
Columns and labels:
[1] = system: blood pressure of anesthetized Sprague-Dawley IGS male rats; experiment: Hypotensive activity in anesthetized rats, invasive blood pressure measurement after intravenous administration; format: in vivo, rat; details: for Hypotensive activity (dose/rat) 30 nmol / Hypotensive activity (dose/rat) 100 nmol / Hypotensive activity (dose/rat) 10 nmol: intravenous; for Hypotensive activity (dose/rat) 30 nmol: 30 nmol/rat; for Hypotensive activity (dose/rat) 100 nmol: 100 nmol/rat; for Hypotensive activity (dose/rat) 10 nmol: 10 nmol/rat
Experimental: 50 mg/kg pentobarbital sodium was intraperitoneally administered to 8- to 10-week-old Sprague-Dawley IGS male rats (Charles River Laboratories Japan, Inc.) for anesthesia. Thereafter, a tracheal cannula (PE 250), a femoral vein cannula (PE50), and a femoral artery cannula (PESO) were inserted into each rat. The femoral artery cannula was connected with a pressure transducer (PE23XL; manufactured by Nihon Kohden Corporation), and an apparatus formed by incorporating a blood pressure measurement unit (AP-641G; manufactured by Nihon Kohden Corporation) and an instantaneous heart rate measurement unit (AT-601G; manufactured by Nihon Kohden Corporation) into a multi-purpose preamplifier (RP-6004; manufactured by Nihon Kohden Corporation) was used to record the blood pressure and heart rate of each rat. The blood pressure was calibrated using a mercury manometer included in a stand-type electromanometer (MP-25S; manufactured by Nihon Kohden Corporation). The recording paper was adjusted, such that 10 mm or 20 mm on the recording paper corresponded to 100 mmHg.
Each peptide was dissolved in a concentration of 1 mM or 10 mM in a 0.1% acetic acid solution to prepare a peptide solution. Thereafter, depending on dose, it was diluted with a normal saline containing 0.1% bovine serum albumin (Fr.V). In the case of the dose of 10 nmol/rat, a 1 mM peptide solution was 10 times diluted, and 100 μl of the diluted solution was administered. In the case of the dose of 30 nmol/rat, a 1 mM peptide solution was 10 times diluted, and 300 μL, of the diluted solution was administered. In the case of the dose of 100 nmol/rat, a 10 mM peptide solution was 10 times diluted, and 100 μL of the diluted solution was administered. Each peptide was intravenously administered via the femoral vein cannula, and the systolic blood pressure, diastolic blood pressure, and heart rate were then measured.
Various HC021 derivative peptides were synthesized in accordance with Example 1, and such peptide was then administered to each rat at a dose of 10 nmol/rat, 30 nmol/rat, or 100 mol/rat by the method described in Example 2. Thereafter, the hypotensive activity of each derivative peptide was measured. […] The strength of such activity was determined using a median of activity in repeated experiments. In addition, in order to make a comparison among the activities of various derivative peptides, the strength of hypotensive activity was defined as follows.
Strength of Hypotensive Activity
Extremely strong activity (+++): A decrease in systolic blood pressure is 30 mmHg or more, and the time required for recovery is 5 minutes or more.
Strong activity (++): A decrease in systolic blood pressure is 20 mmHg or more and less than 30 mmHg, or the time required for recovery is less than 5 minutes.
Activity observed (+): A decrease in systolic blood pressure is less than 20 mmHg.
Activity not observed (−)
Various HC021 peptide sequence-substituted products were synthesized in accordance with Example 1, and their hypotensive activity was then measured according to the method of Example 3.

[2] = system: anti-[N-Cys]-HC021-004 serum; experiment: ELISA binding of anti-[N-Cys]-HC021-004 serum to coated peptides; set-up: species or system rabbit; details: absorbance at 405 nm, FIG. 3
Excerpt: Using [N-Cys]-HC021-004 (a peptide prepared by binding cysteine to the amino terminus of HC021-004) as an antigen, a rabbit was immunized with the antigen to produce antiserum (anti-[N-Cys]-HC021-004 serum).
The ability of this antiserum to bind to peptides having various types of sequences was examined using Protein Detector™ ELISA kit (AP; BluePhos System; manufactured by KPL). Reactions were all carried out at a room temperature. A 96-well immunoplate (maxi-coated; manufactured by Nunc) was coated (amount: 100 uL/well) with each peptide having a different type of sequence (concentration: 1 ng/100 uL) for 1 hour. Then, it was blocked with a 300 uL/well blocking solution for 1 hour. Thereafter, the serially diluted antiserum was added in an amount of 100 uL/well to the immunoplate, followed by reaction for 1 hour. After completion of washing, 500-times diluted Anti-rabbit IgG HRP Ab (manufactured by KPL) was added thereto in an amount of 100 uL/well, followed by reaction for 1 hour. After completion of washing, ABTS (manufactured by KPL) used as a substrate was added thereto in an amount of 100 uL/well. Thirty minutes later, the absorbance at 405 nm was measured.

[3] = system: blood pressure of awake Sprague-Dawley IGS male rats; experiment: Hypotensive activity on awake rats; format: in vivo, rat; set-up: key to Hypotensive activity (dose/rat) 10 nmol / Hypotensive activity (dose/rat) 30 nmol: Extremely strong activity (+++): A decrease in systolic blood pressure is 30 mmHg or more, and the time required for recovery is 5 minutes or more.; Strong activity (++): A decrease in systolic blood pressure is 20 mmHg or more and less than 30 mmHg, or the time required for recovery is less than 5 minutes.; Activity observed (+): A decrease in systolic blood pressure is less than 20 mmHg.; Activity not observed (−); details: for Hypotensive activity (dose/rat) 10 nmol / Hypotensive activity (dose/rat) 30 nmol / Hypotensive activity (dose/rat) 100 nmol: Table 4, intravenous; for Hypotensive activity (dose/rat) 10 nmol: 10 nmol/rat; for Hypotensive activity (dose/rat) 30 nmol: 30 nmol/rat; for Hypotensive activity (dose/rat) 100 nmol: 100 nmol/rat
Experimental: 50 mg/kg pentobarbital sodium was intraperitoneally administered to 8- to 10-week-old Sprague-Dawley IGS male rats (Charles River Laboratories Japan, Inc.) for anesthesia. Thereafter, a jugular vein cannula (Silascon 0.5-1.0) was inserted into each rat for use in peptide administration, and a carotid artery cannula (PE50) was inserted into each rat for use in the measurement of blood pressure. At least 3 hours after the surgery, it was confirmed that the rats were awoken from the anesthesia based on general conditions such as the posture, respiration, and the like of the rats. Thereafter, the rats were subjected to the experiment.
The carotid artery cannula was connected with a pressure transducer (PE23XL; manufactured by Nihon Kohden Corporation), and an apparatus formed by incorporating a blood pressure measurement unit (AP-641G; manufactured by Nihon Kohden Corporation) and an instantaneous heart rate measurement unit (AT-601G; manufactured by Nihon Kohden Corporation) into a multi-purpose preamplifier (RP-6004; manufactured by Nihon Kohden Corporation) was used to record the blood pressure and heart rate of each rat. The blood pressure was calibrated using a mercury manometer included in a stand-type electromanometer (MP-25S; manufactured by Nihon Kohden Corporation). The recording paper was adjusted, such that 20 mm or 40 mm on the recording paper corresponded to 100 mmHg. A solvent in which each peptide had been dissolved was used as a negative control in blood pressure fluctuation.
Each peptide was dissolved in a concentration of 1 mM in a 5% mannitol solution to prepare a peptide solution. Thereafter, depending on dose, it was diluted with a 5% mannitol solution. In the case of the dose of 10 nmol/rat, a 1 mM peptide solution was 30 times diluted, and 300 μL of the diluted solution was administered. In the case of the dose of 30 nmol/rat, a 1 mM peptide solution was 10 times diluted, and 300 μl of the diluted solution was administered. In the case of the dose of 100 nmol/rat, a 1 mM peptide solution was 3 times diluted, and 300 μL of the diluted solution was administered. Each peptide was intravenously administered via the jugular vein cannula, and the systolic blood pressure, diastolic blood pressure, and heart rate were then measured.
The definition of the strength of hypotensive activity was the same as that of Example 3.

| Substance | Hypotensive activity (dose/rat) 30 nmol ([1]; Table 1, anesthetized rats) | Hypotensive activity (dose/rat) 100 nmol ([1]; Table 1, anesthetized rats) | Hypotensive activity (dose/rat) 30 nmol ([1]; Table 2, anesthetized rats) | Hypotensive activity (dose/rat) 100 nmol ([1]; Table 2, anesthetized rats) | binding of anti-[N-Cys]-HC021-004 serum to the peptide [2] | Hypotensive activity (dose/rat) 10 nmol ([1]; Table 3, anesthetized rats) | Hypotensive activity (dose/rat) 30 nmol ([1]; Table 3, anesthetized rats) | Hypotensive activity (dose/rat) 100 nmol ([1]; Table 3, anesthetized rats) | hypotensive activity (in words) [3] | Hypotensive activity (dose/rat) 10 nmol [3] | Hypotensive activity (dose/rat) 30 nmol [3] | Hypotensive activity (dose/rat) 100 nmol [3] | Hypotensive activity (dose/rat) 10 nmol ([1]; Table 1, anesthetized rats) | Hypotensive activity (dose/rat) 10 nmol ([1]; Table 2, anesthetized rats) | dose dependence of hypotensive activity ([1]; anesthetized rats, 10, 30, 100 nmol/rat) | hypotensive activity (in words) ([1]; anesthetized rats, Table 1 and FIG. 1, 10 or 30 nmol/rat, listed as HC021-004) |
| --- | --- | --- | --- | --- | --- | --- | --- | --- | --- | --- | --- | --- | --- | --- | --- | --- |
| LQAYFK-amide (LQAYFK-NH2) [Compound 4] | − | − | − | − | bound |  |  |  |  |  |  |  |  |  |  |  |
| ATLRNEDTWKPLSNPRNRELFFRSLQAYFK-amide [Compound 36] |  |  |  |  |  | − | − | +++ (Extremely strong activity (+++): A decrease in systolic blood pressure is 30 mmHg or more, and the time required for recovery is 5 minutes or more.) | observed to have a hypotensive activity even on the awake rats | − | − | ++ (Strong activity (++): A decrease in systolic blood pressure is 20 mmHg or more and less than 30 mmHg, or the time required for recovery is less than 5 minutes.) |  |  |  |  |
| NRDLFFRRLQAYFK-amide (NRDLFFRRLQAYFK-NH2) [Compound 3] | ++ (Strong activity (++): A decrease in systolic blood pressure is 20 mmHg or more and less than 30 mmHg, or the time required for recovery is less than 5 minutes.) | +++ (Extremely strong activity (+++): A decrease in systolic blood pressure is 30 mmHg or more, and the time required for recovery is 5 minutes or more.) | ++ (Strong activity (++): A decrease in systolic blood pressure is 20 mmHg or more and less than 30 mmHg, or the time required for recovery is less than 5 minutes.) | +++ (Extremely strong activity (+++): A decrease in systolic blood pressure is 30 mmHg or more, and the time required for recovery is 5 minutes or more.) | bound | + (Activity observed (+): A decrease in systolic blood pressure is less than 20 mmHg.) | ++ (Strong activity (++): A decrease in systolic blood pressure is 20 mmHg or more and less than 30 mmHg, or the time required for recovery is less than 5 minutes.) | +++ (Extremely strong activity (+++): A decrease in systolic blood pressure is 30 mmHg or more, and the time required for recovery is 5 minutes or more.) | observed to have a hypotensive activity even on the awake rats | − | − | ++ (Strong activity (++): A decrease in systolic blood pressure is 20 mmHg or more and less than 30 mmHg, or the time required for recovery is less than 5 minutes.) | + (Activity observed (+): A decrease in systolic blood pressure is less than 20 mmHg.) | + (Activity observed (+): A decrease in systolic blood pressure is less than 20 mmHg.) | enhanced their hypotensive activity in a dose-dependent manner | observed to have a hypotensive activity; also recorded: act to lower the blood pressure of rats |
| LQAYFKGRGLDLGTFPNPFPTNENP [Compound 2] | − | − |  |  | did not bind |  |  |  |  |  |  |  | − |  |  |  |

— patent US20110039783A1, “PEPTIDE HAVING HYPOTENSIVE ACTIVITY” (DAIICHI SANKYO COMPANY LIMITED, priority 2007, published 2011)
